Source: patent US11267826B2, “Penicillin-binding protein inhibitors” (priority 2017, dated 2022)

Experiments:
S. aureus ATCC 29213 = assay: Broth microdilution MIC assay, S. aureus; format: cell-based; conditions: broth microdilution, 16-20 hours at 37° C.; for MIC: Staphylococcus aureus, ATCC29213, read-out: S. aureus 29213 MIC
Summary of the method: (§1)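 Following CLSI procedures, compounds were serially diluted 2-fold and challenged with bacteria at 5×10^5 CFU/mL in Mueller-Hinton broth supplemented with divalent cations. After 16-20 hours at 37° C, the lowest concentration without visible growth was recorded as the MIC.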

E. coli PBP3 = target: T1, E. coli PBP3 (Escherichia coli, UniProt P0AD68); assay: Bocillin FL competition binding assay, PBP3; design: species or system Escherichia coli K12; conditions: 15 min pre-incubation
T1 construct: 100 μg's of total membrane protein extracts containing PBPs; endogenous in cells; host or cells: Escherichia coli K12, membrane protein fraction
T1 sequence (P0AD68 1-577): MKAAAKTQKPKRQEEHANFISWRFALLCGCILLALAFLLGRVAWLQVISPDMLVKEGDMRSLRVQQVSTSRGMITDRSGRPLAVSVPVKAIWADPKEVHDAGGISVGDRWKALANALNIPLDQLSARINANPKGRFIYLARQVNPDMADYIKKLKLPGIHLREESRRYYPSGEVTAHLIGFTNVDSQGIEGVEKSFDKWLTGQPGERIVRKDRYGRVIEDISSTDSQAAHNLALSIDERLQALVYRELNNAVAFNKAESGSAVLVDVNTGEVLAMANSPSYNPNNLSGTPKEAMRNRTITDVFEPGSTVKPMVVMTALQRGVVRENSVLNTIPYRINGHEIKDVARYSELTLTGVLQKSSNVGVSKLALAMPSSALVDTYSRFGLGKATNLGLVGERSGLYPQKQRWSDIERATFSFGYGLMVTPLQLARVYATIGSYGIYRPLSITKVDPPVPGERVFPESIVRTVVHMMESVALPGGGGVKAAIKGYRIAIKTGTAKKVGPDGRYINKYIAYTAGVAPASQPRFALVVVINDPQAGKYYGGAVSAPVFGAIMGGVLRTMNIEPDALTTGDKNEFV
Description: (§2) To determine the ability of test compounds to bind Penicillin Binding Proteins (PBPs), a competition binding assay using Bocillin FL (fluorescent derivative of penicillin V) was adapted from the classical method used to assess PBP potency of beta-lactams.
(§3) Penicillin binding proteins were isolated from Escherichia coli K12 by growth of Escherichia coli K12 from a single colony in 4 L of Luria-Bertani (LB) broth at 35° C. and 250 rpm to an OD600 nm of 0.5. The cells were harvested by centrifugation at 7,000×g for 10 min. at 4° C. Cells were resuspended and washed in 50 mM potassium phosphate pH 7.5. The cells were re-suspended in sonication buffer [50 mM Tris-HCl pH 7.5, 1 mM MgCl2, 1 mM beta-mercaptoethanol, and 5 μg/mL DNAse I] and sonicated by 4 passes of 30 seconds at 45 W on ice. The sample was clarified by centrifugation at 3,000×g to remove cell debris and unbroken cells and supernatant containing the membrane proteins was retained. The membrane proteins including the PBPs were further purified from soluble constituents by an ultracentrifugation step at 100,000×g for 30 min. at 4° C. The membrane proteins are washed twice with 10 mM sodium phosphate pH 7, resuspended in a volume of 5 mL, quantitated by BCA assay, adjusted to […] and frozen at −80° C. until use.
(§4) The adapted Bocillin FL competition binding method described herein incorporates a 15 min. pre-incubation of test compound with isolated PBPs to attempt to balance the difference in mechanism of inhibition between beta-lactams (largely irreversible covalent bond to active site Serine) and the boron-containing PBP inhibitor test compounds (reversible covalent bond to active site Serine). Briefly, 50 μL reactions consisted of 100 μg's of total membrane protein extracts containing PBPs incubated with a dilution series of test compound ranging from 0.005 μg/mL to 2,480 μg/mL in 10 mM sodium phosphate pH7 containing 350 mM NaCl. Thirty minute reactions at 35° C. were initiated by addition of […] Bocillin FL, quenched by addition of SDS-PAGE loading buffer containing sodium dodecyl sulfate (SDS) and heated for 15 minutes at 95° C. to denature proteins in preparation for SDS-polyacrylamide gel electrophoresis. The Bocillin FL labeled PBPs are then separated by SDS-PAGE in Novex NuPage 10% Bis-Tris pre-cast gels (Invitrogen). The SDS-PAGE gel, post-electrophoresis, is then washed in water to remove excess SDS for 10 minutes at room temperature and placed on the scanning bed of a GE Healthcare/Amersham Biosciences Storm 860 fluorescence scanner. The excitation wavelength is in the blue spectrum at 450 nm and the emission at 520 nm is captured by the instrument. Effective PBP inhibitors are detected by a reduction in Bocillin FL labeling of the particular PBP over the dose range of test compound in a dose-responsive manner. High molecular weight PBP 1a/1b are not resolved by these gels, thus we report HMW PBP binding results in μg/mL for PBPs 1a/1b combined as well as for PBP2 and PBP3.
(§5) Representative results are shown in Table 2, where A represents a potency of >1000 μg/mL, B represents a potency between 64 and 1000 μg/mL inclusive, and C represents a potency of <64 μg/mL. NT=Not Tested.

[1] = test system: hyper-permeable E. coli 901C; assay: Broth microdilution MIC assay, hyper-permeable E. coli; format: cell-based; conditions: for MIC: Escherichia coli, read-out: E. coli 901C MIC
Summary of the method: as §1

E. coli PBP2 = target: T2, E. coli PBP2 (Escherichia coli, UniProt P0AD65); assay: Bocillin FL competition binding assay, PBP2; design: species or system Escherichia coli K12; conditions: 15 min pre-incubation
T2 construct: 100 μg's of total membrane protein extracts containing PBPs; endogenous in cells; host or cells: Escherichia coli K12, membrane protein fraction
T2 sequence (P0AD65 whole entry): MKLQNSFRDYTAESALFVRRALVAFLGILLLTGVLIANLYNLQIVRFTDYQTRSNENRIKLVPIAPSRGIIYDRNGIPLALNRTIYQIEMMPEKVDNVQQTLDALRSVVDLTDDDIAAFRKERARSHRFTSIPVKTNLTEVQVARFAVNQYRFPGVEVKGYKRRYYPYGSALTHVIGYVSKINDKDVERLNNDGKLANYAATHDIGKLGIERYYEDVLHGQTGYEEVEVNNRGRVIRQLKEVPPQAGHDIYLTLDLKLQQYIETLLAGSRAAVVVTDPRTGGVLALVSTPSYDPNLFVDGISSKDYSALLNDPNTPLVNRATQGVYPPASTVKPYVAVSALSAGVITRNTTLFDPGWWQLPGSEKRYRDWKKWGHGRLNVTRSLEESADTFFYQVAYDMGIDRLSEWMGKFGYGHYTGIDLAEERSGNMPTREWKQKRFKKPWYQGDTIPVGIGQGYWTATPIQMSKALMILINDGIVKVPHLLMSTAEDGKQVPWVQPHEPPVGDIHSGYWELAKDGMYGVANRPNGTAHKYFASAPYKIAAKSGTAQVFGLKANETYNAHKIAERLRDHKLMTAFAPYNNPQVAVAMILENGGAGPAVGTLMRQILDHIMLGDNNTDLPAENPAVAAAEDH
Description: as §2, §3, §4, §5

E. coli K12 PBP1a/b = assay: Bocillin FL competition binding assay, PBP1a/1b combined; design: species or system Escherichia coli K12; conditions: 15 min pre-incubation, PBP 1a/1b combined
Description: as §2, §3, §4, §5

Row | SMILES | MIC (S. aureus ATCC 29213) | MIC [1] | further results
1 | Nc1nc(/C(=N\O)C(=O)N[C@H]2Cc3cccc(C(=O)O)c3OB2O)cs1 [Example 7, (R,E)-3-(2-(2-aminothiazol-4-yl)-2-(hydroxyimino)acetamido)-2-hydroxy-3,4-dihydro-2H-benzo[e][1,2]oxaborinine-8-carboxylic Acid] | 64 to 128 µg/mL | < 64 µg/mL | E. coli PBP3 Potency (E. coli PBP3): A (A represents a potency of >1000 μg/mL); E. coli PBP2 Potency (E. coli PBP2): B (B represents a potency between 64 and 1000 μg/mL inclusive); E. coli K12 PBP1a/b Potency (E. coli K12 PBP1a/b): A (A represents a potency of >1000 μg/mL)
2 | N#CC1CCC(NC(=O)CO/N=C(\C(=O)N[C@H]2Cc3cccc(C(=O)O)c3OB2O)c2csc(N)n2)CC1 (stereo partly drawn) [Example 63, (R)-3-((Z)-2-(2-aminothiazol-4-yl)-2-((2-(((1s,4S)-4-cyanocyclohexyl)amino)-2-oxoethoxy)imino)acetamido)-2-hydroxy-3,4-dihydro-2H-benzo[e][1,2]oxaborinine-8-carboxylic Acid] |  |  | E. coli PBP3 Potency (E. coli PBP3): C (C represents a potency of <64 μg/mL); E. coli PBP2 Potency (E. coli PBP2): B (B represents a potency between 64 and 1000 μg/mL inclusive); E. coli K12 PBP1a/b Potency (E. coli K12 PBP1a/b): B (B represents a potency between 64 and 1000 μg/mL inclusive)
3 | Nc1nc(/C(=N/OCC(=O)NCCCCCNC(=O)CBr)C(=O)N[C@H]2Cc3cccc(C(=O)O)c3OB2O)cs1 [Example 78, (R,Z)-3-(2-(2-aminothiazol-4-yl)-15-bromo-6,14-dioxo-4-oxa-3,7,13-triazapentadec-2-enamido)-2-hydroxy-3,4-dihydro-2H-benzo[e][1,2]oxaborinine-8-carboxylic Acid] |  | > 128 µg/mL | E. coli PBP3 Potency (E. coli PBP3): B (B represents a potency between 64 and 1000 μg/mL inclusive); E. coli PBP2 Potency (E. coli PBP2): B (B represents a potency between 64 and 1000 μg/mL inclusive); E. coli K12 PBP1a/b Potency (E. coli K12 PBP1a/b): B (B represents a potency between 64 and 1000 μg/mL inclusive)
4 | Nc1nc(/C(=N/OCC(F)F)C(=O)N[C@H]2Cc3cccc(C(=O)O)c3OB2O)cs1 [Example 114, (R,Z)-3-(2-(2-aminothiazol-4-yl)-2-((2,2-difluoroethoxy)imino)acetamido)-2-hydroxy-3,4-dihydro-2H-benzo[e][1,2]oxaborinine-8-carboxylic Acid] | 64 to 128 µg/mL | < 64 µg/mL | 
5 | Nc1nc(/C(=N/OCCCCl)C(=O)N[C@H]2Cc3cccc(C(=O)O)c3OB2O)cs1 [Example 115, (R,Z)-3-(2-(2-aminothiazol-4-yl)-2-((3-chloropropoxy)imino)acetamido)-2-hydroxy-3,4-dihydro-2H-benzo[e][1,2]oxaborinine-8-carboxylic Acid] | > 128 µg/mL | < 64 µg/mL | 
6 | Nc1nc(/C(=N/OCCCBr)C(=O)N[C@H]2Cc3cccc(C(=O)O)c3OB2O)cs1 [Example 116, (R,Z)-3-(2-(2-aminothiazol-4-yl)-2-((3-bromopropoxy)imino)acetamido)-2-hydroxy-3,4-dihydro-2H-benzo[e][1,2]oxaborinine-8-carboxylic Acid] | > 128 µg/mL | > 128 µg/mL | 
7 | Nc1nc(/C(=N/OCC(F)(F)F)C(=O)N[C@H]2Cc3cccc(C(=O)O)c3OB2O)cs1 [Example 117, (R,Z)-3-(2-(2-aminothiazol-4-yl)-2-((2,2,2-trifluoroethoxy)imino)acetamido)-2-hydroxy-3,4-dihydro-2H-benzo[e][1,2]oxaborinine-8-carboxylic Acid] | 64 to 128 µg/mL | < 64 µg/mL | 
8 | CC(=O)NCCO/N=C(\C(=O)N[C@H]1Cc2cccc(C(=O)O)c2OB1O)c1csc(N)n1 [Example 119, (R,Z)-3-(2-((2-acetamidoethoxy)imino)-2-(2-aminothiazol-4-yl)acetamido)-2-hydroxy-3,4-dihydro-2H-benzo[e][1,2]oxaborinine-8-carboxylic Acid] | > 128 µg/mL | 64 to 128 µg/mL | 
9 | CS(=O)(=O)NCCO/N=C(\C(=O)N[C@H]1Cc2cccc(C(=O)O)c2OB1O)c1csc(N)n1 [Example 120, (R,Z)-3-(2-(2-aminothiazol-4-yl)-2-((2-(methylsulfonamido)ethoxy)imino)acetamido)-2-hydroxy-3,4-dihydro-2H-benzo[e][1,2]oxaborinine-8-carboxylic Acid] | > 128 µg/mL | 64 to 128 µg/mL | 
10 | O=C(N[C@H]1Cc2cccc(C(=O)O)c2OB1O)/C(=N\O)c1csc(NCc2ccccn2)n1 [Example 121, (R,Z)-2-hydroxy-3-(2-(hydroxyimino)-2-(2-((pyridin-2-ylmethyl)amino)thiazol-4-yl)acetamido)-3,4-dihydro-2H-benzo[e][1,2]oxaborinine-8-carboxylic Acid] | < 64 µg/mL | > 128 µg/mL | 
11 | O=C(N[C@H]1Cc2cccc(C(=O)O)c2OB1O)/C(=N\O)c1csc(NCCc2ccccn2)n1 [Example 122, (R,Z)-2-hydroxy-3-(2-(hydroxyimino)-2-(2-((2-(pyridin-2-yl)ethyl)amino)thiazol-4-yl)acetamido)-3,4-dihydro-2H-benzo[e][1,2]oxaborinine-8-carboxylic Acid] | < 64 µg/mL | > 128 µg/mL | 
12 | O=C(N[C@H]1Cc2cccc(C(=O)O)c2OB1O)/C(=N\O)c1csc(NCCc2ccncc2)n1 [Example 123, (R,Z)-2-hydroxy-3-(2-(hydroxyimino)-2-(2-((2-(pyridin-4-yl)ethyl)amino)thiazol-4-yl)acetamido)-3,4-dihydro-2H-benzo[e][1,2]oxaborinine-8-carboxylic Acid] | < 64 µg/mL | > 128 µg/mL | 
13 | O=C(N[C@H]1Cc2cccc(C(=O)O)c2OB1O)/C(=N/O)c1csc(NCCc2ccncc2)n1 [Example 124, (R,E)-2-hydroxy-3-(2-(hydroxyimino)-2-(2-((2-(pyridin-4-yl)ethyl)amino)thiazol-4-yl)acetamido)-3,4-dihydro-2H-benzo[e][1,2]oxaborinine-8-carboxylic Acid] | > 128 µg/mL | > 128 µg/mL | 
14 | Cc1cc(C)n2c1C=C1C=CC(CCC(=O)NCCON=C(C(=O)N[C@H]3Cc4cccc(C(=O)O)c4OB3O)c3csc(N)n3)=[N+]1[B-]2(F)F [Example 125, (R)-3-(2-(2-aminothiazol-4-yl)-2-((2-(3-(5,5-difluoro-7,9-dimethyl-5H-4λ^4,5λ^4-dipyrrolo[1,2-c:2′,1′-f][1,3,2]diazaborinin-3-yl)propanamido)ethoxy)imino)acetamido)-2-hydroxy-3,4-dihydro-2H-benzo[e][1,2]oxaborinine-8-carboxylic Acid] |  |  | S. aureus 29213 MIC (S. aureus ATCC 29213): A (A represents an MIC >128 μg/mL); E. coli 901C MIC ([1]; broth microdilution, 16-20 hours at 37° C.): A (A represents an MIC >128 μg/mL)
15 | O=C(N[C@H]1Cc2cccc(C(=O)O)c2OB1O)/C(Cn1cncn1)=N\O [Example 126, (R,Z)-2-hydroxy-3-(2-(hydroxyimino)-3-(1H-1,2,4-triazol-1-yl)propanamido)-3,4-dihydro-2H-benzo[e][1,2]oxaborinine-8-carboxylic Acid] | > 128 µg/mL | > 128 µg/mL | 
16 | O=C(N[C@H]1Cc2cccc(C(=O)O)c2OB1O)/C(Cn1nccn1)=N\O [Example 127, (R,Z)-2-hydroxy-3-(2-(hydroxyimino)-3-(2H-1,2,3-triazol-2-yl)propanamido)-3,4-dihydro-2H-benzo[e][1,2]oxaborinine-8-carboxylic Acid] | > 128 µg/mL | > 128 µg/mL | 
